Columns and labels:
[1] = target: TGF-beta receptor type-1 (Homo sapiens) (UniProt P36897)
[2] = tested on: Proto-oncogene tyrosine-protein kinase receptor Ret (Homo sapiens), P07949 [M918T]
[3] = target: Sodium-dependent noradrenaline transporter (Homo sapiens, UniProt P23975); conditions: Compound concentration 10.0 uM
[4] = target: Serine/threonine-protein kinase pim-1 (Homo sapiens) (UniProt P11309)
[5] = target: Tyrosine-protein kinase Srms (Homo sapiens) (UniProt Q9H3Y6)
[6] = tested on: Tyrosine-protein kinase ABL1 (Homo sapiens), P00519 [Q252H]
[7] = target: Receptor tyrosine-protein kinase erbB-2 (Homo sapiens) (UniProt P04626)
[8] = target: Casein kinase II subunit alpha' (Homo sapiens) (UniProt P19784)
[9] = target: Rhodopsin kinase GRK1 (Homo sapiens) (UniProt Q15835)
[10] = target: Death-associated protein kinase 2 (Homo sapiens) (UniProt Q9UIK4)
[11] = target: Calcium/calmodulin-dependent protein kinase type II subunit beta (Homo sapiens) (UniProt Q13554)
[12] = target: Ephrin type-A receptor 3 (Homo sapiens) (UniProt P29320)
[13] = target: Macrophage colony-stimulating factor 1 receptor (Homo sapiens) (UniProt P07333)
[14] = target: Dual specificity protein kinase CLK4 (Homo sapiens) (UniProt Q9HAZ1)
[15] = target: Serine/threonine-protein kinase B-raf (Homo sapiens) (UniProt P15056)
[16] = target: Calcium/calmodulin-dependent protein kinase kinase 2 (Homo sapiens) (UniProt Q96RR4)
[17] = target: cAMP-dependent protein kinase catalytic subunit alpha (Homo sapiens) (UniProt P17612)
[18] = target: Dual specificity tyrosine-phosphorylation-regulated kinase 1B (Homo sapiens) (UniProt Q9Y463)
Chain of Dual specificity tyrosine-phosphorylation-regulated kinase 1B (Homo sapiens) (Q9Y463 whole entry, looked up): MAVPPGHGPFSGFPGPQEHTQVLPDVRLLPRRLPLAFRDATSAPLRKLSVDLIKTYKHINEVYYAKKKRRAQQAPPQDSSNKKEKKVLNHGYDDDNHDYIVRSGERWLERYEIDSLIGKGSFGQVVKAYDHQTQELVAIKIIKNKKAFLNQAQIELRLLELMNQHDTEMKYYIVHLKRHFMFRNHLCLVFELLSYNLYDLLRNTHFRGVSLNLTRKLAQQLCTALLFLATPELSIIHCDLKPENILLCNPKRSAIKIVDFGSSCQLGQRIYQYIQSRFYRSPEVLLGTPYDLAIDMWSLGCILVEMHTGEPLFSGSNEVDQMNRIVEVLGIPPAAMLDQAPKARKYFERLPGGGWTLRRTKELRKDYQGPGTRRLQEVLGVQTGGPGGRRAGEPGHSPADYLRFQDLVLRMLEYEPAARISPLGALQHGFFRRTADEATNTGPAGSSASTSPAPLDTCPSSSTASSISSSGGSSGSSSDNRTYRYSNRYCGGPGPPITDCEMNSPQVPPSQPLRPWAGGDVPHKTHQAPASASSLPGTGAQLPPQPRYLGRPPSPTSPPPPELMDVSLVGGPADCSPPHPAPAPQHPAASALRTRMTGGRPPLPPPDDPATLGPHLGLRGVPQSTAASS

[19] = target: D(2) dopamine receptor (Homo sapiens, UniProt P14416); conditions: Compound concentration 10.0 uM
Chain of D(2) dopamine receptor (P14416 whole entry): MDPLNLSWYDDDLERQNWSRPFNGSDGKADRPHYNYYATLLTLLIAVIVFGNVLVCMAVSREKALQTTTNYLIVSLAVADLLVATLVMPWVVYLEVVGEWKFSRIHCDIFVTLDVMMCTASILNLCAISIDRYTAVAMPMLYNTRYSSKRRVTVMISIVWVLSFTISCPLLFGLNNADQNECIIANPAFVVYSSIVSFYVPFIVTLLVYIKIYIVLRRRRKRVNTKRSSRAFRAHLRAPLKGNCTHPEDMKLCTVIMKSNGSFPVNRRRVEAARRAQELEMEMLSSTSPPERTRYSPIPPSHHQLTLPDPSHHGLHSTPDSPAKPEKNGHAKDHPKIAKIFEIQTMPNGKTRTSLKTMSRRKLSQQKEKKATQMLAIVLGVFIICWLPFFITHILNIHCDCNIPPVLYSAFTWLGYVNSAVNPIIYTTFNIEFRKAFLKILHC

[20] = target: Sodium-dependent dopamine transporter (Homo sapiens) (UniProt Q01959); conditions: Compound concentration 10.0 uM
[21] = target: Casein kinase I isoform alpha (Homo sapiens) (UniProt P48729)
[22] = tested on: Tyrosine-protein kinase ABL1 (Homo sapiens), P00519 [Q252H]; remark: listed apart in the source
[23] = target: Serine/threonine-protein kinase tousled-like 1 (Homo sapiens) (UniProt Q9UKI8)
[24] = tested on: Mast/stem cell growth factor receptor Kit (Homo sapiens), P10721 [D816H]
Chain of Mast/stem cell growth factor receptor Kit (Homo sapiens), P10721 [D816H] (P10721 whole entry D816H): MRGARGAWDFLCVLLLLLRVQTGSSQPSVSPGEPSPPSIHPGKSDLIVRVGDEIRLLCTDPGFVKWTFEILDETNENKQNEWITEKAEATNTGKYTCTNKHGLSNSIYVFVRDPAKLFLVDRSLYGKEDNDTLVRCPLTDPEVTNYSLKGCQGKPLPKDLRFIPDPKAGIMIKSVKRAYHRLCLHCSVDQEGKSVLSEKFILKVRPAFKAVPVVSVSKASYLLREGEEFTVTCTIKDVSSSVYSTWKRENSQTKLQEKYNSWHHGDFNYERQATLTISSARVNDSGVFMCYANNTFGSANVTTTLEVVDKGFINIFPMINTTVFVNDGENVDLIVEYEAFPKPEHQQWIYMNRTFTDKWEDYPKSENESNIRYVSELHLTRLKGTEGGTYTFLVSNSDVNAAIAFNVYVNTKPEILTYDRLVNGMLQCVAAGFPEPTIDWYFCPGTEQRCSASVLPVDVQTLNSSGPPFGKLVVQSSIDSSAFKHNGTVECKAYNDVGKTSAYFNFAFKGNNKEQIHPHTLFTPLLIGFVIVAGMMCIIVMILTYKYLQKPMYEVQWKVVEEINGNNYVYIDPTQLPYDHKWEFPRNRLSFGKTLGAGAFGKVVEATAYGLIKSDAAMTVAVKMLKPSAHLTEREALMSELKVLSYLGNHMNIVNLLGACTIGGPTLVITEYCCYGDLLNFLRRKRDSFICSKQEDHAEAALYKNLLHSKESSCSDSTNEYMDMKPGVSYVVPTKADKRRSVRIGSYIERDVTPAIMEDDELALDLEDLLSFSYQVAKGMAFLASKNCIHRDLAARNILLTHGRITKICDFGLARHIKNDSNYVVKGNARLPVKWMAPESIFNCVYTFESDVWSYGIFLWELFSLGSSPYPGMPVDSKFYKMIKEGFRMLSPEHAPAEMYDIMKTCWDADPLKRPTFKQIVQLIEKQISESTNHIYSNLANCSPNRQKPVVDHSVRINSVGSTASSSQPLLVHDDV

[25] = target: Serine/threonine-protein kinase Nek9 (Homo sapiens) (UniProt Q8TD19)
Chain of Serine/threonine-protein kinase Nek9 (Homo sapiens) (Q8TD19 whole entry): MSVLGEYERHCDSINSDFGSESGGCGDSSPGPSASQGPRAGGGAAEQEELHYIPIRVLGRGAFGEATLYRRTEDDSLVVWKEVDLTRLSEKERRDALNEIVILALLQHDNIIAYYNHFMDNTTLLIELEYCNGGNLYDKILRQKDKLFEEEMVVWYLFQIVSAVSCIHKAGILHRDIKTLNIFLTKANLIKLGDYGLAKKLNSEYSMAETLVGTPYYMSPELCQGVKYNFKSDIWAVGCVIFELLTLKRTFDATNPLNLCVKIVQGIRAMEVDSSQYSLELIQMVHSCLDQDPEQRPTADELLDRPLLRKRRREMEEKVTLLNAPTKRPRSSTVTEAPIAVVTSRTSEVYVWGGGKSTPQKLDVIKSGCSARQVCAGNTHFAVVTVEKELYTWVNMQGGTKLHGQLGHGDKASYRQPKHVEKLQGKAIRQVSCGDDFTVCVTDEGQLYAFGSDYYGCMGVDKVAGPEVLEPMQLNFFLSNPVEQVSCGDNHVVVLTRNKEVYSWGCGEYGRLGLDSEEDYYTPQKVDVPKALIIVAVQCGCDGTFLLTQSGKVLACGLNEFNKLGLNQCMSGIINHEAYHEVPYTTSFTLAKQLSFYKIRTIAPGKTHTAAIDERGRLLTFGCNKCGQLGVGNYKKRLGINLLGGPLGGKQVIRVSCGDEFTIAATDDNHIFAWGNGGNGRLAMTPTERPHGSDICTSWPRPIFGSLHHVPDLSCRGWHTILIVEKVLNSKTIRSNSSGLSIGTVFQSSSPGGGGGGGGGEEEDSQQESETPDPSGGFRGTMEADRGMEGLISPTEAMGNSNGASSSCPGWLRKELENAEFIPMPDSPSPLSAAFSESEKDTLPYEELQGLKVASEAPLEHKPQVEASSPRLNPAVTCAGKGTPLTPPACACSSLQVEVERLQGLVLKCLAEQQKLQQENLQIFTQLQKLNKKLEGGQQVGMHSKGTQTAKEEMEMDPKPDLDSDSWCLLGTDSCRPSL

[26] = target: Serine/threonine-protein kinase WNK2 (Homo sapiens) (UniProt Q9Y3S1)
[27] = target: Mitogen-activated protein kinase 14 (Homo sapiens) (UniProt Q16539)
[28] = target: Sigma intracellular receptor 2 (Homo sapiens, UniProt Q5BJF2); experiment: GPCRScan assay: inhibition of Sigma 2; parameters: radioligand conc. used [nm] 5.0, parental cells HEKT
Chain of Sigma intracellular receptor 2 (Q5BJF2 whole entry): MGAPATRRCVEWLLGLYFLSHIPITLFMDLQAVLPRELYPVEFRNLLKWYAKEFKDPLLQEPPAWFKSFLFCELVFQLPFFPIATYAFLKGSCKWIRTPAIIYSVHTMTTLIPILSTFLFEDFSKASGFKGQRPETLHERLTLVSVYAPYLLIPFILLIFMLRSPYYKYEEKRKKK

[29] = tested on: Mast/stem cell growth factor receptor Kit (Homo sapiens), P10721 [L576P]
Chain of Mast/stem cell growth factor receptor Kit (Homo sapiens), P10721 [L576P] (P10721 whole entry L576P): as the sequence (P10721 whole entry D816H) above, with L576P, H816D counted along it

[30] = target: Serine/threonine-protein kinase Nek7 (Homo sapiens) (UniProt Q8TDX7)
[31] = target: Dual serine/threonine and tyrosine protein kinase (Homo sapiens) (UniProt Q6XUX3)
[32] = target: Mitogen-activated protein kinase 6 (Homo sapiens) (UniProt Q16659)
[33] = target: Ribosomal protein S6 kinase alpha-3 (Homo sapiens) (UniProt P51812)
[34] = target: Dual specificity mitogen-activated protein kinase kinase 5 (Homo sapiens) (UniProt Q13163)
[35] = target: Serine/threonine-protein kinase D3 (Homo sapiens) (UniProt O94806)
[36] = target: Homeodomain-interacting protein kinase 2 (Homo sapiens) (UniProt Q9H2X6)
[37] = tested on: Phosphatidylinositol 4,5-bisphosphate 3-kinase catalytic subunit alpha isoform (Homo sapiens), P42336 [H1047Y]
[38] = target: 5-hydroxytryptamine receptor 1E (Homo sapiens) (UniProt P28566); conditions: Compound concentration 10.0 uM
[39] = target: Tyrosine-protein kinase receptor UFO (Homo sapiens) (UniProt P30530)
Chain of Tyrosine-protein kinase receptor UFO (Homo sapiens) (P30530 whole entry): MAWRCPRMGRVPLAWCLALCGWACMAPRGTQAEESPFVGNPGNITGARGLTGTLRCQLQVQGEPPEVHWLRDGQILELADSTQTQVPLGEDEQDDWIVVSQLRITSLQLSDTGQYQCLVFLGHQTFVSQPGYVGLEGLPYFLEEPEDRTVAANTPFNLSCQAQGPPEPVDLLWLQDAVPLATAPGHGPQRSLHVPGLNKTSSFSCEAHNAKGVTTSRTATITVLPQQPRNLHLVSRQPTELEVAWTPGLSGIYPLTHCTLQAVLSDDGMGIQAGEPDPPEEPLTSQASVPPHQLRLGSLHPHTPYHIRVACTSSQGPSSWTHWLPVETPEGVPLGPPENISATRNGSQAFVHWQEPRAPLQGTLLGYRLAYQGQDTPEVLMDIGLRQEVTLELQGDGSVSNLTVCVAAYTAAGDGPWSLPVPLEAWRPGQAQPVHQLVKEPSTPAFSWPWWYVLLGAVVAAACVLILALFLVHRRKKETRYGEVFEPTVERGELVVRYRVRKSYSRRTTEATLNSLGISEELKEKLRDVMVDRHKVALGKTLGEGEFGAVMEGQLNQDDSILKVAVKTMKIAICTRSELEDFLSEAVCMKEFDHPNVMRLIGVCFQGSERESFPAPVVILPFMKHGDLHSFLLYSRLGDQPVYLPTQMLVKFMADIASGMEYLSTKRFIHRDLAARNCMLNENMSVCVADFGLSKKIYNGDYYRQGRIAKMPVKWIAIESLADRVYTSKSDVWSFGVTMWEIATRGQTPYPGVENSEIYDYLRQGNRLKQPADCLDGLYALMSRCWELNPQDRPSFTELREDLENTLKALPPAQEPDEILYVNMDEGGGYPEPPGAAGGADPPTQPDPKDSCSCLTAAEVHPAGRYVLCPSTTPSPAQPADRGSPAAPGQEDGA

[40] = target: Testis-specific serine/threonine-protein kinase 3 (Homo sapiens) (UniProt Q96PN8)
Chain of Testis-specific serine/threonine-protein kinase 3 (Homo sapiens) (Q96PN8 whole entry): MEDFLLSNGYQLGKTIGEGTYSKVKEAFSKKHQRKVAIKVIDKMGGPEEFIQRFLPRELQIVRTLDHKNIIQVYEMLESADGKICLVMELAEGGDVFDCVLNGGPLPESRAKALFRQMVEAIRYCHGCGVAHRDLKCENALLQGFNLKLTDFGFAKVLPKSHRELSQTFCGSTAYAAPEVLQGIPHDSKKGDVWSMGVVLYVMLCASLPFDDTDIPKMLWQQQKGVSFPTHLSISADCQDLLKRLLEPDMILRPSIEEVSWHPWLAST

[41] = Compound concentration 100.0 nM
[42] = Compound concentration 1000.0 nM

Chain of TGF-beta receptor type-1 (Homo sapiens) (P36897 whole entry): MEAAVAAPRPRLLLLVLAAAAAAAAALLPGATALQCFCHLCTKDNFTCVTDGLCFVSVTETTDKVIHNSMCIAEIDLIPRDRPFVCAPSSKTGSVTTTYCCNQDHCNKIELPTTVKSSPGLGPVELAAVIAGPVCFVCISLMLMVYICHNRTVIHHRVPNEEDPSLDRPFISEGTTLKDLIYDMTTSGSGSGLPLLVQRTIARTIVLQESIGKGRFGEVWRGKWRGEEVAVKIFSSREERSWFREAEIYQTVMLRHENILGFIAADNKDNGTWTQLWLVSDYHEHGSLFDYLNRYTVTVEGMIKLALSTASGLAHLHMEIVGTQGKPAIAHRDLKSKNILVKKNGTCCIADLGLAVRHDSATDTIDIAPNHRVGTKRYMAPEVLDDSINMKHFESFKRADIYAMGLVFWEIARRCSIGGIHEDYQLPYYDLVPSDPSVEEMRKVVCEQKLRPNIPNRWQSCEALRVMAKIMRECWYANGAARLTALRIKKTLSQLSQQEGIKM

Cc1cc(C)c(-n2ccn3nc(-c4cccnc4)cc23)cc1NC(=O)c1cc(C#N)cc(S(F)(F)(F)(F)F)c1 [BAY-826]
955 nM: Ki ([28]; read-out: pKi (converted))
inactive: residual activity [1, 41] 98.2% | residual activity [2, 41] 77.1% | inhibition [3] 1.95% | residual activity [4, 41] 92% | residual activity [5, 41] 67.4% | residual activity [7, 41] 84.2% | residual activity [8, 41] 82.4% | residual activity [9, 41] 71.2% | residual activity [10, 41] 75.8% | residual activity [11, 41] 87.5% | residual activity [12, 41] 89.8% | residual activity [13, 41] 92.9% | residual activity [14, 41] 93.3% | residual activity [15, 41] 89.4% | residual activity [16, 41] 89% | residual activity [17, 41] 95.6% | residual activity [18, 41] 100% | inhibition [19] 8.74% | inhibition [20] 10.7% | residual activity [21, 41] 67% | residual activity [22, 41] 72.9% | residual activity [23, 41] 89.1% | residual activity [24, 41] 81.8% | residual activity [25, 41] 72.2% | residual activity [26, 41] 100% | residual activity [30, 41] 75.5% | residual activity [31, 41] 71.1% | residual activity [32, 41] 85.8% | residual activity [33, 41] 65.1% | residual activity [34, 41] 91.8% | residual activity [35, 41] 97% | residual activity [36, 41] 86.2% | residual activity [37, 41] 76.2% | inhibition [38] 3.57% | residual activity [39, 41] 80.5% | residual activity [40, 41] 76.9%
active: residual activity [6, 41] 31.4% | residual activity [27, 41] 0% | residual activity [29, 41] 40.7%
984 nM: Ki ([28]; read-out: Ki)

Cc1cc(NC(=O)c2cccc(S(F)(F)(F)(F)F)c2)cc(-n2ccn3nc(-c4cccnc4)cc23)c1 [BAY-309]
active: inhibition [3] 62.9% | residual activity [6, 42] 49.2% | residual activity [15, 42] 43.5% | inhibition [19] 62.1% | residual activity [34, 42] 35.9% | residual activity [37, 42] 22.9%
inactive: residual activity [1, 42] 74.3% | residual activity [2, 42] 100% | residual activity [4, 42] 95.6% | residual activity [5, 42] 86.9% | residual activity [7, 42] 100% | residual activity [8, 42] 100% | residual activity [9, 42] 50.4% | residual activity [10, 42] 100% | residual activity [11, 42] 100% | residual activity [12, 42] 100% | residual activity [13, 42] 89% | residual activity [14, 42] 100% | residual activity [16, 42] 99.6% | residual activity [17, 42] 100% | residual activity [18, 42] 61.2% | inhibition [20] 38.1% | residual activity [21, 42] 50.7% | residual activity [22, 42] 100% | residual activity [23, 42] 100% | residual activity [24, 42] 73.1% | residual activity [25, 42] 100% | residual activity [26, 42] 100% | residual activity [27, 42] 100% | residual activity [29, 42] 100% | residual activity [30, 42] 100% | residual activity [31, 42] 72.8% | residual activity [32, 42] 100% | residual activity [33, 42] 89% | residual activity [35, 42] 100% | residual activity [36, 42] 85% | inhibition [38] 19.9% | residual activity [39, 42] 100% | residual activity [40, 42] 100%
789 nM: Ki ([28]; read-out: pKi (converted))
796 nM: Ki ([28]; read-out: Ki)

Reference: ChEMBL document CHEMBL4507270 (2021)
